Where “and” joins values, the source holds several entries; their conditions need not be identical. Equal entries are not always repeated.
Experiments:
[1] = C14 hydroxyl replaced by electron withdrawing group; background statement; cited from earlier work
[2] = system: BxPC-3 pancreatic cancer cells; experiment: Inhibition of triptolide-AS1411 conjugate on the growth of pancreatic cancer cells in vitro (absorbance, MTT); type: cell-based, human; details: for Absorbance (24 h) / Absorbance (48 h): replicate wells
Protocol: 5 pancreatic cancer cell lines (MiaPaCa-2, PANC-1, BxPC-3, SW1990 and ASPC-1) used in the experiments were all purchased from Shanghai Cell Bank.
(§1) Fetal bovine serum and two antibiotics were added into the above media so as to form a final culture medium with a final content of 10% and 1%. Cells were incubated in an incubator at 37° C. and with 5% CO2.
Pancreatic cancer cells (MiaPaCa-2, PANC-1, BxPC-3, SW1990 and ASPC-1) were uniformly seeded into a 96-well plate with a low density (1×10^3˜1×10^4, depending on the specific cell lines, and the conditions were referred to Shanghai Cell Bank). After placed in incubator for adhering overnight, the used medium was replaced by a serum free medium containing drug. […] The cells were then incubated in the incubator at 37° C. and with 5% CO2. Cell activities were measured by MTT. The operation was performed for 4 times.

[3] = system: acute lymphoblastic leukemia T-cells (CCRF-CEM); experiment: Inhibition of triptolide-SGC8C conjugate on the growth of cancer cells in vitro (absorbance, MTT); type: cell-based; details: replicates, listed as TP
Protocol: Cell lines: acute lymphoblastic leukemia T-cells (CCRF-CEM) and hepatocyte (L-02).
as §1, with “CO2. Growth conditions of the cells were constantly observed and cell counting was performed, and all the experiments were carried out on cells in logarithmic growth phase.” for “CO2.”
Study on anti-cancer activity: acute lymphoblastic leukemia T-cells (CCRF-CEM) and liver cells (L-02) were uniformly seeded into a 96-well plate in a low density (1×10^3˜1×10^4, depending on the specific cell lines) and were placed in an incubator overnight for adhering, the used medium was replaced by a serum free medium containing drug. […] The cells were then cultured in the incubator at 37° C. and with 5% CO2. Cell activities were measured by MTT. The operations were repeated for 3 times.

[4] = design: species or system female nude mice; details: female, nude, mouse, in vivo
From the text: BxPC-3 cells in logarithmic growth phase were used.
Samples A and B in 2.2.2 were used.

cancer cells = details: background statement; cited from earlier work
[5] = background statement; cited from earlier work

CC(C)[C@]12O[C@H]1[C@@H]1O[C@]13[C@]1(O[C@H]1C[C@H]1C4=C(CC[C@@]13C)C(=O)OC4)[C@H]2F [Compound M-2]
cytotoxicity compared with TP [1]: greater than TP

CC(C)[C@]12O[C@H]1[C@@H]1O[C@]13[C@]1(O[C@H]1C[C@H]1C4=C(CC[C@@]13C)C(=O)OC4)[C@@H]2O [Triptolide]
Absorbance (24 h) ([2]; 25 nM): 0.745 and 0.764 and 0.718 and 0.690 | Absorbance (48 h) ([2]; 25 nM): 0.296 and 0.322 (2×) and 0.317 | Absorbance (24 h) ([2]; 50 nM): 0.436 and 0.430 and 0.454 and 0.424 | Absorbance (48 h) ([2]; 50 nM): 0.219 and 0.223 and 0.231 and 0.220 | Absorbance (24 h) ([2]; 100 nM): 0.393 and 0.397 and 0.403 and 0.364 | Absorbance (48 h) ([2]; 100 nM): 0.211 and 0.206 and 0.223 and 0.212 | Absorbance (24 h) ([2]; 200 nM): 0.365 and 0.366 and 0.402 and 0.399 | Absorbance (48 h) ([2]; 200 nM): 0.200 and 0.218 and 0.222 and 0.213 | effect on proliferation of pancreatic cancer cells ([2]; compared with blank references, concentration range 50 nM-200 nM, time and dose dependent): significantly inhibit | Absorbance (CCRF-CEM) ([3]; 25 nM): 0.7555 and 0.7582 and 0.755 | Absorbance (CCRF-CEM) ([3]; 50 nM): 0.5502 and 0.5441 and 0.5447 | Absorbance (CCRF-CEM) ([3]; 100 nM): 0.2608 and 0.2717 and 0.2802 | Absorbance (CCRF-CEM) ([3]; 200 nM): 0.1902 (2×) and 0.18 | time after administration at which drug concentration in blood reaches a maximum [4]: 0.5 h | concentration that effectively inhibits the growth of the cancer cells (cancer cells): 2 to 10 ng/mL | solubility in water [5]: not soluble in water

CC(C)[C@]12O[C@H]1[C@@H]1O[C@]13[C@]1(O[C@H]1C[C@H]1C4=C(CC[C@@]13C)C(=O)OC4)[C@@H]2F [Compound M-1]
cytotoxicity compared with TP [1]: greater than TP

— patent US9809822B2 (priority 2013, dated 2017)
